From patent US9873702B2, “Heterocyclic compounds as biogenic amine transport modulators” (Southern Research Institute, priority 2014, dated 2018) come the findings set out here.

Series [1] addresses norepinephrine transporter (NET) (Rattus norvegicus, UniProt Q9WTR4). The experiment in a line: Norepinephrine reuptake ([^3H]norepinephrine uptake) inhibition in rat brain synaptosomes.
Procedure: Freshly removed whole brain minus cerebellum and caudate was homogenized in 10% ice-cold sucrose with 12 strokes of a hand-held Potter-Elvehjem homogenizer followed by centrifugation at 1000×g for 10 minutes. The supernatants were saved on ice and used immediately. Transporter activity at NET was assessed using 10 nM [^3H]norepinephrine. […] Uptake inhibition assays were conducted at 37° C. and were initiated by adding 100 μL of tissue to 900 μL assay buffer containing test drug and [^3H]norepinephrine. Test drugs were diluted in assay buffer containing 1 mg/mL bovine serum albumin. Nonspecific uptake was measured by incubating in the presence of 10 μM indatraline. The reactions were stopped after 10 minutes by rapid vacuum filtration with a cell harvester (BRANDEL) over GF/B filters (Whatman) presoaked in wash buffer maintained at 25° C. (10 mM Tris-HCl, pH 7.4/150 mM NaCl). Filters were rinsed with 6 mL wash buffer and retained tritium was quantified by a MicroBeta liquid scintillation counter (PerkinElmer) after overnight extraction in 0.6 mL of liquid scintillation cocktail (Cytoscint, ICN). The data from three experiments were pooled and fit to a dose-response curve equation (using Kaleidagraph), to yield an Emax and EC50 value.
(§1) The data from three experiments were pooled and fit to a dose-response curve equation (using KaleidaGraph; Synergy Software, Reading, Pa.) to yield an Emax and IC50 value.
For series [2], the target named is dopamine transporter (DAT) (Rattus norvegicus, UniProt P23977). The experiment in a line: Dopamine reuptake ([^3H]dopamine uptake) inhibition in rat brain synaptosomes. The note with it: for IC50: DA Uptake EC50 (nM ± SD), rat caudate synaptosomes, 5 nM [^3H]dopamine, 15 min, 25° C., three experiments pooled.
dopamine transporter (DAT), sequence (P23977 whole entry): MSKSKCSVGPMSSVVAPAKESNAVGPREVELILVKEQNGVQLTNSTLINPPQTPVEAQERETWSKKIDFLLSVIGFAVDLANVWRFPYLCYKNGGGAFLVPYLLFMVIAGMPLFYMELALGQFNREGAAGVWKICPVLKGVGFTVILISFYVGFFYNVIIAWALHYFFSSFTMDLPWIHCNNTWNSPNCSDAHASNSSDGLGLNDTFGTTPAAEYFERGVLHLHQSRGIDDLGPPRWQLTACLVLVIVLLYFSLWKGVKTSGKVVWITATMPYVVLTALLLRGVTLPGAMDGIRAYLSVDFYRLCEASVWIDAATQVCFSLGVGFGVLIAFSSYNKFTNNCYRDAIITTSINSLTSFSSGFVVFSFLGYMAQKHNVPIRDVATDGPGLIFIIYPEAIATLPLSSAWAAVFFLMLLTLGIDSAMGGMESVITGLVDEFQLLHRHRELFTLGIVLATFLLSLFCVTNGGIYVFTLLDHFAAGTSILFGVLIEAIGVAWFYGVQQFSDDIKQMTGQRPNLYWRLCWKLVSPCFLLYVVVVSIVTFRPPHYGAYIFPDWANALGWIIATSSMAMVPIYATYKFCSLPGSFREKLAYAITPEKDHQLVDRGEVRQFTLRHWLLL
Procedure: Freshly removed caudate was homogenized in 10% ice-cold sucrose with 12 strokes of a hand-held Potter-Elvehj em homogenizer followed by centrifugation at 1000×g for 10 min. The supernatants were saved on ice and used immediately. Transporter activity was assessed using 5 nM [^3H]dopamine. […] The selectivity of the uptake assay for dopamine active transporter (DAT) was optimized by including 100 nM citalopram and 100 nM desipramine as blockers of serotonin transporter (SERT) and norepinephrine transporter (NET) in the sucrose solution and assay buffer. Uptake inhibition assays were conducted at 25° C. and were initiated by adding 100 μl of tissue to 900 μL assay buffer containing test drug and [^3H]dopamine. Test drugs were diluted in assay buffer containing 1 mg/mL bovine serum albumin. Nonspecific uptake was measured by incubating in the presence of 10 μM indatraline. The reactions were stopped after 15 minutes by rapid vacuum filtration with a cell harvester (BRANDEL) over GF/B filters (Whatman) presoaked in wash buffer maintained at 25° C. (10 mM Tris-HCl, pH 7.4/150 mM NaCl). Filters were rinsed with 6 mL wash buffer and retained tritium was quantified by a MicroBeta liquid scintillation counter (PerkinElmer) after overnight extraction in 0.6 mL of liquid scintillation cocktail (Cytoscint, ICN). The data from three experiments were pooled and fit to a dose-response curve equation (using Kaleidagraph), to yield an Emax and EC50 value.
as §1
For series [3], the target named is T1, serotonin transporter (SERT) (Rattus norvegicus, UniProt P31652).
T1 construct: Freshly removed whole brain minus cerebellum and caudate was homogenized; from tissue; host or cells: rat whole brain minus cerebellum and caudate, synaptosomes
T1 sequence (P31652 whole entry): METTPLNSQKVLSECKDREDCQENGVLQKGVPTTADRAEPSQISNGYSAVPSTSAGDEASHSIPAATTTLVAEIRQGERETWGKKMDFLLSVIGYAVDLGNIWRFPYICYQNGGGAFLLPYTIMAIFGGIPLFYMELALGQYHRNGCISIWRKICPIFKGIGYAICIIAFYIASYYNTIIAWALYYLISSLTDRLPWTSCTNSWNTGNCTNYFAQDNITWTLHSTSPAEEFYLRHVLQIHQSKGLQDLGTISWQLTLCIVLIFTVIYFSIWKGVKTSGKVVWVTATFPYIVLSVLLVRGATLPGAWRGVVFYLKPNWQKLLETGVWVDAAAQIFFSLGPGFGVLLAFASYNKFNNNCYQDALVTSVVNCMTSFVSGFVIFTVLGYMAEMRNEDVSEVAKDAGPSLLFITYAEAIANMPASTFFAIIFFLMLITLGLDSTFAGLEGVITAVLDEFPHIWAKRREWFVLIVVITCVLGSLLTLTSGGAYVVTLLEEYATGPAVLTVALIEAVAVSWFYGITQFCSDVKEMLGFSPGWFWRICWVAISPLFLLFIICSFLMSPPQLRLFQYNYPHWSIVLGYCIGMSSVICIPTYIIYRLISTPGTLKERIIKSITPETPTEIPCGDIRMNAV
The experiment in a line: Serotonin reuptake ([^3H]serotonin uptake) inhibition in rat brain synaptosomes. It counts as biochemical.

Where [4] appears, read: read-out: DA Uptake Emax (% I ± SD).

Like-named read-outs stand apart in the source and are kept apart here.

One may read the Emax as the size of the effect at its maximum, as opposed to the concentration needed. Turning to `COC(=O)[C@H]1[C@@H](OC(=O)c2ccccc2)C[C@@H]2CC[C@H]1N2C` [cocaine, reference compound], in series [1] (mean ± S.D., n = 3), the “NET Uptake Emax” value stood at 102 ± 2%. Moreover, the Emax in series [2] (read-out: DAT Uptake Emax) is 100 ± 2%; in series [3] (read-out: SERT Uptake Emax), 98 ± 2%.

Consider `CS(=O)(=O)Nc1ccc(-c2nc(NCC(c3ccccc3)c3ccncc3)c3ccccc3n2)cc1` (stereo not drawn) [SRI-30524], for which the “NET Uptake Emax” value in series [1] (mean ± S.D., n = 3) stood at 76 ± 2%. Further, the IC50 in series [1] (read-out: NET Uptake IC50, mean ± S.D., n = 3) worked out at 44 ± 6 nM; in series [3] (mean ± S.D., n = 3, read-out: SERT Uptake IC50), 8.7 ± 0.9 nM.

The melting point is the temperature, or range, at which the solid turns liquid. On to `c1ccc(C(CNc2nc(-n3cnc4cncnc43)nc3ccccc23)c2ccccc2)cc1` [compound 90, N-(2,2-Diphenylethyl)-2-(9H-Purin-9-yl)Quinazolin-4-Amine], for which the melting point was 264 °C. For the same compound, the IC50 in series [2] came out at 94 ± 10 nM. For the same compound, the Emax in series [2] (setting [4]) stood at 75 ± 2%.

`c1ccc(C(Nc2nc(-c3cncnc3)nc3ccccc23)c2ccccc2)cc1` [compound 14, N-Benzhydryl-2-(pyrimidin-5-yl)quinazolin-4-amine] registered a melting point of 210 °C. In series [2], the IC50 was 234 ± 36 nM. Further, in series [2] (setting [4]), the Emax was determined as 74 ± 2%.

In the case of `CN(C)c1ncc(-c2cccc(C(CNc3nc(-c4cnc(N(C)C)nc4)nc4ccccc34)c3ccccc3)n2)cn1` (stereo not drawn) [compound 57, 2-(2-(Dimethylamino)Pyrimidin-5-yl)-N-(2-(6-(2-(Dimethylamino)Pyrimidin-5-yl)Pyridin-2-yl)-2-Phenylethyl)Quinazolin-4-Amine], the melting point worked out at 112 °C. In series [2], this compound returned an IC50 of 55 ± 18 nM. Further, the maximum response (Emax) in series [2] (setting [4]) was 61 ± 3%.

For `CCN(CC)C(=O)[C@]1(c2ccccc2)C[C@@H]1CNc1nc(-c2ccc3nccn3c2)nc2ccccc12` [compound 170, (1R,2S)—N,N-Diethyl-2-(((2-(Imidazo[1,2-A]Pyridin-6-yl)Quinazolin-4-yl)Amino)Methyl)-1-Phenylcyclopropanecarboxamide], the melting point was in the range of 221 to 223 °C. The IC50 in series [2] was determined as 78 ± 14 nM. Further, the maximal response (Emax) in series [2] (setting [4]) amounted to 72 ± 2%.

Compound `Cc1cc2nccn2cc1-c1nc(NCCc2ccccn2)c2ccccc2n1` [compound 183, (7-Methylimidazo[1,2-A]Pyridin-6-yl)-N-(2-(Pyridin-2-yl)Ethyl)Quinazolin-4-Amine] registered a melting point of 224 to 228 °C. Besides, the IC50 in series [2] was 912 ± 195 nM. Further, in series [2] (setting [4]), the maximal response (Emax) is 77 ± 4%.

For `c1ccc(C(CNc2nc(N3CCc4ccccc4C3)nc3ccccc23)c2ccccc2)cc1` [compound 193, 2-(3,4-Dihydroisoquinolin-2(1H)-yl)-N-(2,2-Diphenylethyl)Quinazolin-4-Amine], the melting point is 250 to 253 °C. The IC50 in series [2] was determined as 1.7 ± 0.4 nM. For the same compound, in series [2] (setting [4]), the maximal response (Emax) was 77 ± 3%.

On to `CS(=O)(=O)Nc1ncc(-c2nc(NCC(c3ccccc3)c3ccccc3)c3ccccc3n2)cn1` [compound 139, N-(5-(4-((2,2-Diphenylethyl)Amino)Quinazolin-2-yl)Pyrimidin-2-yl)Methanesulfonamide], for which the melting point was 214 °C. Also, the IC50 in series [2] is 205 ± 32 nM. Moreover, the maximum response (Emax) in series [2] (setting [4]) stood at 67 ± 2%.

For the compound `c1ccc(CCC(Nc2nc(-c3ccc4nccn4c3)nc3ccccc23)c2ccccc2)cc1` (stereo not drawn) [compound 166, N-(1,3-Diphenylpropyl)-2-(Imidazo[1,2-A]Pyridin-6-yl)Quinazolin-4-Amine], the melting point lay within 190 to 192 °C. For the same compound, the IC50 in series [2] turned out to be 42 ± 7 nM. For the same compound, in series [2] (setting [4]), the maximal response (Emax) was determined as 68 ± 2%.

`c1ccc(CNc2ncc(-c3nc(NCC(c4ccccc4)c4ccccc4)c4ccccc4n3)cn2)cc1` [compound 46, 2-(2-(Benzylamino)Pyrimidin-5-yl)-N-(2,2-Diphenylethyl)Quinazolin-4-Amine] yielded a melting point of 184 °C. The IC50 in series [2] was 544 ± 248 nM. The maximal effect (Emax) in series [2] (setting [4]) amounted to 60 ± 6%.

`Cc1cc2nccn2cc1-c1nc(NCC(c2ccncc2)c2ccc[nH]2)c2ccccc2n1` (stereo not drawn) [compound 185, 2-(7-Methylimidazo[1,2-A]Pyridin-6-yl)-N-(2-(Pyridin-4-yl)-2-(1H-Pyrrol-2-yl)Ethyl)Quinazolin-4-Amine] came in with a melting point of 214 to 216 °C. Besides, the IC50 in series [2] was found to be 11 ± 2 nM. The maximum response (Emax) in series [2] (setting [4]) was determined as 71 ± 2%.

Turning to `Cc1cc2nccn2cc1-c1nc(NC(CCc2ccccc2)c2ccccc2)c2ccccc2n1` (stereo not drawn) [compound 167, N-(1,3-Diphenylpropyl)-2-(7-Methylimidazo[1,2-A]Pyridin-6-yl)Quinazolin-4-Amine], the melting point lay within 119 to 120 °C. The compound further returned an IC50 in series [2] of 9.4 ± 2.3 nM. In series [2] (setting [4]), the Emax is 76 ± 3%.

`c1ccc2c(NCC(c3ccncc3)c3ccncc3)nc(-c3ccc4nccn4c3)nc2c1` [compound 158, N-(2,2-Di(Pyridin-4-yl)Ethyl)-2-(Imidazo[1,2-A]Pyridin-6-yl)Quinazolin-4-Amine] returned a melting point of 192 to 196 °C. The IC50 in series [2] was found to be 66 ± 10 nM. For the same compound, the Emax in series [2] (setting [4]) stood at 68 ± 2%.

With `OC(CNc1nc(-c2ccc3nccn3c2)nc2ccccc12)(c1ccccc1)c1ccccc1` [compound 96, 2-((2-(Imidazo[1,2-A]Pyridin-6-yl)Quinazolin-4-yl)Amino)-1,1-Diphenylethanol], in series [1] (rat brain synaptosomes, 10 nM [^3H]norepinephrine, maximal inhibition from dose-response fit), the “NE Uptake Emax (% I ± SD)” value is on record as 65 ± 3 % I. Besides, the IC50 was 98 ± 23 nM in series [1] (read-out: NE Uptake EC50 (nM ± SD), rat brain synaptosomes, 10 nM [^3H]norepinephrine, 10 min, 37° C.); 9.2 ± 1.2 nM in series [2]; 16 ± 5 nM in series [3] (rat brain synaptosomes, 5 nM [^3H]serotonin, 30 min, 25° C., read-out: 5HT Uptake EC50 (nM ± SD)). The Emax in series [2] (setting [4]) amounted to 70 ± 1%; in series [3] (rat brain synaptosomes, 5 nM [^3H]serotonin, maximal inhibition from dose-response fit, read-out: 5HT Uptake Emax (% I ± SD)), 55 ± 2%.

`CC(CNc1nc(-c2ccc3nccn3c2)nc2ccccc12)(c1ccccc1)c1ccccc1` [compound 164, N-(2,2-Diphenylpropyl)-2-(Imidazo[1,2-A]Pyridin-6-yl)Quinazolin-4-Amine] came in with a melting point of 107 to 109 °C. The same compound came in with an IC50 in series [2] of 6.4 ± 1.6 nM. Moreover, in series [2] (setting [4]), the maximum response (Emax) amounted to 76 ± 3%.

`Cc1cc2nccn2cc1-c1nc(NCCc2cccnc2)c2ccccc2n1` [compound 180, 2-(7-Methylimidazo[1,2-A]Pyridin-6-yl)-N-(2-(Pyridin-3-yl)Ethyl)Quinazolin-4-Amine] yielded a melting point of 241 to 244 °C. Besides, the IC50 in series [2] came out at 252 ± 22 nM. The maximal response (Emax) in series [2] (setting [4]) came to 73 ± 1%.

`CN(C)c1ccc(-c2nc(NC(c3ccccc3)c3ccccc3)c3ccccc3n2)cn1` [compound 92, N-Benzhydryl-2-(6-(Dimethylamino)Pyridin-3-yl)Quinazolin-4-Amine] returned a melting point of 207 °C. Also, in series [2], the IC50 came to 34 ± 5 nM. Moreover, the maximal response (Emax) in series [2] (setting [4]) amounted to 68 ± 2%.

The compound `c1ccc(C(CNc2nc(-c3cccc4cccnc34)nc3ccccc23)c2ccccc2)cc1` [compound 141, N-(2,2-Diphenylethyl)-2-(Quinolin-8-yl)Quinazolin-4-Amine] came in with a melting point of 102 to 104 °C. In series [2], the IC50 amounted to 45 ± 7 nM. Further, the maximal response (Emax) in series [2] (setting [4]) amounted to 98 ± 3%.

`Cc1cc2nccn2cc1-c1nc(NC[C@H](c2ccccc2)n2cccc2)c2ccccc2n1` [compound 162, (S)-2-(7-Methylimidazo[1,2-A]Pyridin-6-yl)-N-(2-Phenyl-2-(1H-Pyrrol-1-yl)Ethyl)Quinazolin-4-Amine] showed a melting point of 196 to 198 °C. In addition, the IC50 in series [2] was determined as 2.2 ± 0.4 nM. Further, the maximal effect (Emax) in series [2] (setting [4]) turned out to be 62 ± 2%.

Regarding `Cn1cnc2ccc(-c3nc(NCC(c4ccccc4)c4ccccc4)c4ccccc4n3)cc21` [compound 64, N-(2,2-Diphenylethyl)-2-(1-Methyl-1H-Benzo [D]Imidazol-6-yl)Quinazolin-4-Amine], the melting point was found to be 248 °C. Besides, the IC50 in series [2] is 19 ± 3 nM. Also, in series [2] (setting [4]), the Emax turned out to be 75 ± 2%.

Turning to `CC(C)(C)OC(=O)n1cnc2cc(-c3nc(NCC(c4ccccc4)c4ccccc4)c4ccccc4n3)ccc21` [compound 62, Tert-Butyl 5-(4-((2,2-Diphenylethyl)Amino)Quinazolin-2-yl)-1H-Benzo [D]Imidazole-1-Carboxylate], the melting point was 183 °C. The compound also came in with an IC50 in series [2] of 4210 nM. The Emax in series [2] (setting [4]) is < 100%.
